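Each compound was tested at five concentrations against cells in 96-well plates for 48 hours. TGI: total growth inhibition.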
How the values were obtained:
Assay in all cases: NCI tumour cell line growth inhibition, 48 h
UO-31 renal = tested on: UO-31 renal
NCI-H522 lung = tested on: NCI-H522 lung
K-562 leukemia = tested on: K-562 leukemia
PC-3 prostate = tested on: PC-3 prostate
SNB-75 CNS = tested on: SNB-75 CNS
SF-268 CNS = tested on: SF-268 CNS
HOP-92 NSCLC = tested on: HOP-92 NSCLC
T-47D breast = tested on: T-47D breast
HCT-15 colon = tested on: HCT-15 colon
IGROV1 ovarian = tested on: IGROV1 ovarian
UACC-257 melanoma = tested on: UACC-257 melanoma
HL-60(TB) leukemia = tested on: HL-60(TB) leukemia
MDA-N = tested on: MDA-N
MOLT-4 leukemia = tested on: MOLT-4 leukemia
MCF7 breast = tested on: MCF7 breast
U251 CNS = tested on: U251 CNS
SN12C renal = tested on: SN12C renal
HOP-62 NSCLC = tested on: HOP-62 NSCLC
CAKI-1 renal = tested on: CAKI-1 renal
A498 renal = tested on: A498 renal
SK-MEL-28 melanoma = tested on: SK-MEL-28 melanoma
SK-MEL-5 melanoma = tested on: SK-MEL-5 melanoma
SK-OV-3 ovarian = tested on: SK-OV-3 ovarian
CCRF-CEM leukemia = tested on: CCRF-CEM leukemia
EKVX NSCLC = tested on: EKVX NSCLC
SW-620 colon = tested on: SW-620 colon
SF-295 CNS = tested on: SF-295 CNS
M14 melanoma = tested on: M14 melanoma
A549 NSCLC = tested on: A549 NSCLC
SF-539 CNS = tested on: SF-539 CNS
SNB-19 CNS = tested on: SNB-19 CNS
NCI-H460 lung = tested on: NCI-H460 lung
OVCAR-5 ovarian = tested on: OVCAR-5 ovarian
HCC-2998 colon = tested on: HCC-2998 colon
COLO 205 colon = tested on: COLO 205 colon
HCT-116 colon = tested on: HCT-116 colon
MDA-MB-435 = tested on: MDA-MB-435
HS 578T breast = tested on: HS 578T breast
NCI/ADR-RES ovarian = tested on: NCI/ADR-RES ovarian
ACHN renal = tested on: ACHN renal
RPMI-8226 leukemia = tested on: RPMI-8226 leukemia
UACC-62 melanoma = tested on: UACC-62 melanoma
MDA-MB-231 breast = tested on: MDA-MB-231 breast
DU-145 prostate = tested on: DU-145 prostate
OVCAR-4 ovarian = tested on: OVCAR-4 ovarian
OVCAR-3 ovarian = tested on: OVCAR-3 ovarian
OVCAR-8 ovarian = tested on: OVCAR-8 ovarian
RXF 393 renal = tested on: RXF 393 renal
KM12 colon = tested on: KM12 colon
TK-10 renal = tested on: TK-10 renal
BT-549 breast = tested on: BT-549 breast
SR leukemia = tested on: SR leukemia
NCI-H23 lung = tested on: NCI-H23 lung
NCI-H226 lung = tested on: NCI-H226 lung
SK-MEL-2 melanoma = tested on: SK-MEL-2 melanoma
LOX IMVI melanoma = tested on: LOX IMVI melanoma
MALME-3M melanoma = tested on: MALME-3M melanoma
HT29 colon = tested on: HT29 colon
786-0 renal = tested on: 786-0 renal

For `COc1ccc(/C(=N/O)c2ccccc2-c2nc3ccccc3c(=O)n2-c2ccc(S(=O)(=O)Nc3ncccn3)cc2)cc1C`, which TGI (UO-31 renal) is on record?
Its TGI is over 31.6 µM.

And the TGI (NCI-H522 lung)?
Its TGI is 23.7 µM.

What about the TGI (K-562 leukemia) of the same molecule?
Its TGI is 21.6 µM.

And the TGI (PC-3 prostate)?
The TGI was over 31.6 µM.

What about the TGI (SNB-75 CNS) of the same molecule?
The TGI was 26.6 µM.

What about the TGI (SF-268 CNS) of the same molecule?
The TGI was over 31.6 µM.

And the TGI (HOP-92 NSCLC)?
Its TGI is 30.4 µM.

And the TGI (T-47D breast)?
Its TGI is 25.2 µM.

What about the TGI (HCT-15 colon) of the same molecule?
Its TGI is 28.6 µM.

And the TGI (IGROV1 ovarian)?
The TGI was over 31.6 µM.

And the TGI (UACC-257 melanoma)?
Its TGI is 30.5 µM.

And the TGI (HL-60(TB) leukemia)?
Its TGI is 20 µM.

What about the TGI (MDA-N) of the same molecule?
Its TGI is over 31.6 µM.

And the TGI (MOLT-4 leukemia)?
The TGI was 23.8 µM.

What about the TGI (MCF7 breast) of the same molecule?
The TGI was 22.2 µM.

And the TGI (U251 CNS)?
The TGI was 22.9 µM.

What about the TGI (SN12C renal) of the same molecule?
The TGI was over 31.6 µM.

What about the TGI (HOP-62 NSCLC) of the same molecule?
Its TGI is over 31.6 µM.

And the TGI (CAKI-1 renal)?
Its TGI is over 31.6 µM.

And the TGI (A498 renal)?
The TGI was over 31.6 µM.

What about the TGI (SK-MEL-28 melanoma) of the same molecule?
Its TGI is 23 µM.

And the TGI (SK-MEL-5 melanoma)?
The TGI was 25.4 µM.

What about the TGI (SK-OV-3 ovarian) of the same molecule?
The TGI was 20.8 µM.

And the TGI (CCRF-CEM leukemia)?
Its TGI is 25.5 µM.

What about the TGI (EKVX NSCLC) of the same molecule?
Its TGI is over 31.6 µM.

What about the TGI (SW-620 colon) of the same molecule?
Its TGI is over 31.6 µM.

And the TGI (SF-295 CNS)?
The TGI was 27.9 µM.

And the TGI (M14 melanoma)?
The TGI was over 31.6 µM.

And the TGI (A549 NSCLC)?
The TGI was over 31.6 µM.

And the TGI (SF-539 CNS)?
Its TGI is 27.2 µM.

And the TGI (SNB-19 CNS)?
Its TGI is over 31.6 µM.

What about the TGI (NCI-H460 lung) of the same molecule?
Its TGI is over 31.6 µM.

And the TGI (OVCAR-5 ovarian)?
The TGI was over 31.6 µM.

What about the TGI (HCC-2998 colon) of the same molecule?
The TGI was 21.7 µM.

What about the TGI (COLO 205 colon) of the same molecule?
The TGI was over 31.6 µM.

And the TGI (HCT-116 colon)?
The TGI was 22.1 µM.

What about the TGI (MDA-MB-435) of the same molecule?
Its TGI is 27.3 µM.

What about the TGI (HS 578T breast) of the same molecule?
The TGI was over 100 µM.

What about the TGI (NCI/ADR-RES ovarian) of the same molecule?
Its TGI is over 31.6 µM.

What about the TGI (ACHN renal) of the same molecule?
Its TGI is 25.1 µM.

What about the TGI (RPMI-8226 leukemia) of the same molecule?
The TGI was 42.9 µM.

What about the TGI (UACC-62 melanoma) of the same molecule?
The TGI was 19.9 µM.

What about the TGI (MDA-MB-231 breast) of the same molecule?
The TGI was over 31.6 µM.

And the TGI (DU-145 prostate)?
The TGI was over 31.6 µM.

And the TGI (OVCAR-4 ovarian)?
The TGI was over 31.6 µM.

And the TGI (OVCAR-3 ovarian)?
The TGI was 25.9 µM.

And the TGI (OVCAR-8 ovarian)?
Its TGI is over 31.6 µM.

What about the TGI (RXF 393 renal) of the same molecule?
The TGI was 19.8 µM.

And the TGI (KM12 colon)?
The TGI was over 31.6 µM.

What about the TGI (TK-10 renal) of the same molecule?
Its TGI is over 31.6 µM.

What about the TGI (BT-549 breast) of the same molecule?
Its TGI is 31.3 µM.

And the TGI (SR leukemia)?
The TGI was 31 µM.

And the TGI (NCI-H23 lung)?
Its TGI is 27.6 µM.

`Cc1occc1C(=S)Nc1ccc(Cl)c(COC(C)(C)C)c1` was tested. Which TGI (UO-31 renal) did it give?
The TGI was 26 µM.

What about the TGI (NCI-H522 lung) of the same molecule?
Its TGI is 28.6 µM.

And the TGI (PC-3 prostate)?
The TGI was 30.6 µM.

What about the TGI (SF-268 CNS) of the same molecule?
The TGI was 35.9 µM.

And the TGI (HOP-92 NSCLC)?
Its TGI is 30.4 µM.

And the TGI (T-47D breast)?
Its TGI is 26.9 µM.

And the TGI (NCI-H226 lung)?
Its TGI is 34.2 µM.

What about the TGI (HCT-15 colon) of the same molecule?
The TGI was 34.5 µM.

And the TGI (IGROV1 ovarian)?
Its TGI is 31 µM.

And the TGI (UACC-257 melanoma)?
Its TGI is 31.3 µM.

What about the TGI (HL-60(TB) leukemia) of the same molecule?
Its TGI is 45 µM.

What about the TGI (MDA-N) of the same molecule?
The TGI was 34.4 µM.

And the TGI (SK-MEL-2 melanoma)?
The TGI was 33.1 µM.

What about the TGI (MOLT-4 leukemia) of the same molecule?
Its TGI is 47.9 µM.

What about the TGI (MCF7 breast) of the same molecule?
The TGI was 31.6 µM.

And the TGI (U251 CNS)?
Its TGI is 28.9 µM.

And the TGI (SN12C renal)?
The TGI was 29.2 µM.

What about the TGI (HOP-62 NSCLC) of the same molecule?
Its TGI is 44.9 µM.

What about the TGI (CAKI-1 renal) of the same molecule?
The TGI was 38.9 µM.

And the TGI (LOX IMVI melanoma)?
The TGI was 34 µM.

And the TGI (A498 renal)?
Its TGI is 32.3 µM.

And the TGI (SK-MEL-28 melanoma)?
Its TGI is 30.1 µM.

What about the TGI (SK-MEL-5 melanoma) of the same molecule?
Its TGI is 33.4 µM.

And the TGI (SK-OV-3 ovarian)?
The TGI was 34 µM.

And the TGI (CCRF-CEM leukemia)?
The TGI was 62.4 µM.

And the TGI (EKVX NSCLC)?
Its TGI is 37.1 µM.

And the TGI (SW-620 colon)?
The TGI was 33.5 µM.

And the TGI (MALME-3M melanoma)?
The TGI was 31.1 µM.

What about the TGI (SF-295 CNS) of the same molecule?
Its TGI is 27.9 µM.

And the TGI (M14 melanoma)?
Its TGI is 43.5 µM.

And the TGI (HT29 colon)?
The TGI was 29.6 µM.

And the TGI (A549 NSCLC)?
Its TGI is 41.8 µM.

And the TGI (SF-539 CNS)?
Its TGI is 31.1 µM.

And the TGI (SNB-19 CNS)?
Its TGI is 48.2 µM.

What about the TGI (NCI-H460 lung) of the same molecule?
The TGI was 31 µM.

What about the TGI (OVCAR-5 ovarian) of the same molecule?
Its TGI is 50.6 µM.

And the TGI (HCC-2998 colon)?
The TGI was 32.2 µM.

What about the TGI (COLO 205 colon) of the same molecule?
The TGI was 30.6 µM.

And the TGI (HCT-116 colon)?
Its TGI is 32.1 µM.

And the TGI (MDA-MB-435)?
The TGI was 30.7 µM.

What about the TGI (HS 578T breast) of the same molecule?
The TGI was 49.6 µM.

And the TGI (NCI/ADR-RES ovarian)?
The TGI was 33.4 µM.

What about the TGI (ACHN renal) of the same molecule?
The TGI was 31.1 µM.

What about the TGI (RPMI-8226 leukemia) of the same molecule?
Its TGI is 50.5 µM.

What about the TGI (UACC-62 melanoma) of the same molecule?
Its TGI is 28.6 µM.

And the TGI (786-0 renal)?
Its TGI is 30.3 µM.

And the TGI (MDA-MB-231 breast)?
The TGI was 32 µM.

What about the TGI (DU-145 prostate) of the same molecule?
The TGI was 46.9 µM.

And the TGI (OVCAR-4 ovarian)?
The TGI was 33.1 µM.

What about the TGI (OVCAR-3 ovarian) of the same molecule?
The TGI was 30 µM.

What about the TGI (OVCAR-8 ovarian) of the same molecule?
Its TGI is 31.5 µM.

And the TGI (RXF 393 renal)?
The TGI was 32.3 µM.

And the TGI (KM12 colon)?
The TGI was 31.7 µM.

What about the TGI (TK-10 renal) of the same molecule?
Its TGI is 34.8 µM.

What about the TGI (BT-549 breast) of the same molecule?
The TGI was 33.6 µM.

What about the TGI (SR leukemia) of the same molecule?
The TGI was 41.8 µM.

What about the TGI (NCI-H23 lung) of the same molecule?
The TGI was 35.7 µM.
